Reference: patent US11642391B2, “Compositions containing a pharmacophore with selectivity to diseased tissue and methods of making same” (Vascular BioSciences, priority 2014, dated 2023)

Legend:
[1] = test system: monocrotaline-induced PAH; assay: Monocrotaline-induced (MCT) PAH rat model, co-administration with imatinib; type: in vivo, Sprague-Dawley rats; conditions: prolonged intravenous administration of imatinib alone
Protocol: CAR pharmacophore co-administration with imatinib in a rat model of monocrotaline-induced (MCT) PAH was used to observe the therapeutic utility of CAR for targeting PAH. CAR pharmacophore peptide was intravenously co-administered with 10 mg/kg or 50 mg/kg imatinib for 14 days starting 4 weeks post MCT induction.
PAH was induced in male Sprague-Dawley rats (300-330 g, 10 weeks old, Harlan) with a single intraperitoneal dose of monocrotaline (60 mg/kg). Treatment was initiated four weeks after PAH induction with either imatinib (50 mg/kg or 10 mg/kg) or imatinib (50 mg/kg or 10 mg/kg)+CAR pharmacophore combination (3 mg/kg) for 2 weeks with daily i.v. (FIGS. 22 and 23) or daily sublingual administration.

[2] = test system: diseased kidney (anti-glomerular basement membrane antibody induced glomerular injury); assay: CAR pharmacophore targeting in rat model of crescentic glomerular nephritis; type: in vivo; conditions: i.v. 3.3 mg/kg B.W., 14 days after induction, kidneys harvested three hours after injection
Protocol: A rat model of crescentic glomerular nephritis (anti-glomerular basement membrane antibody induced glomerular injury) was used to observe the utility of CAR pharmacophore targeting in chronic kidney disease. Glomerulonephritis was induced in rat kidneys by i.v. injection of anti-glomerular basement membrane antibodies. 14 days after induction, CAR pharmacophore peptide or control ([…] SEQ ID NO: 34) peptide was i.v. injected at 3.3 mg/kg B.W. Kidneys were harvested three hours after CAR pharmacophore or control injection and Masson's trichrome (collagen) staining and fibronectin immunostaining were used to determine development of kidney disease and fibrosis formation.

CHO cells = conditions: prior experiments; linear truncated peptides; cited from earlier work
sepsis = conditions: cited from earlier work
LPS-induced sepsis = assay: Survival in LPS mouse model of sepsis; type: in vivo, mice
Protocol: Fifty-percent of all mice with LPS-induced sepsis that are left untreated are dead within 48 hours. When these LPS mice are treated with clinically relevant doses of the common and experimental sepsis drugs hydrocortisone, antithrombin III or sivelestat, survival ranged from 40-56%, similar to current clinical outcomes. In contrast, when LPS mice were co-administered CAR at the same time as hydrocortisone, antithrombin III or sivelestat, experimental sepsis survival improved to 83-89%.
Injection of the bacterial protein, lipopolysaccharide (LPS), was used to induce sepsis in mice. Doses were given at 3, 6, 9, and 12 hours to match the clinical use of sivelestat. Survival was measured up to 48 hours after LPS injection. At 48 hours, the survival rate of CAR pharmacophore+sivelestat treated animals was 89% compared to 50% in both control and sivelestat only groups, representing a 78% increase in survival of animals treated with CAR pharmacophore (FIG. 12).
Sepsis was initiated and survival measured with doses given at 3 and 24 hours to match the clinical use of ATIII. […]
CAR pharmacophore dramatically improves survival in septic mice treated with hydrocortisone steroid. Sepsis was initiated and survival measured with doses given at 3 and 24 hours to match the clinical use of hydrocortisone. […]

[3] = test system: lung, liver and kidney endothelium of septic animals; assay: Scanning electron micrograph of lung, liver and kidney tissue in LPS sepsis; type: in vivo, mice
MDA-MB-231 cells = assay: Triple negative breast cancer model in athymic nude mice; type: in vivo; conditions: after 32 days; 3 mg/kg i.v. every other day, 15 doses
Protocol: In female athymic nude mice (CRL: NU(NCr)—Foxn1nu, 11 weeks old, Charles River), triple negative breast cancer tumors were initiated via subcutaneous injection of 5×10^6 MDA-MB-231 cells into the right flank. Tumor growth was monitored until the average tumor size approached 100-150 mm3. […] Animals were dosed intravenously every other day for a total of 15 doses. Tumor volume was measured using calipers twice per week and animals weighed daily on days 1-5 and then on a twice weekly schedule.

[4] = meta-analysis of 8 trials (Iwata et al., 2010)

For Cc1ccc(NC(=O)c2ccc(CN3CCN(C)CC3)cc2)cc1Nc1nccc(-c2cccnc2)n1 [imatinib], the effect on bodyweight [1] was “significant adverse effect on bodyweight”.
For CGGGGGGGC [control peptide], the “accumulation in the diseased kidney” value [2] was “largely cleared from the kidney”.
For CARSKNK [SEQ ID NO: 24], the “cell binding and tissue homing” value (CHO cells) is listed as “highly active”.
For C[C@]12CCC(=O)C=C1CC[C@@H]1[C@@H]2[C@@H](O)C[C@@]2(C)[C@H]1CC[C@]2(O)C(=O)CO [hydrocortisone], the super infection (sepsis; low-dose hydrocortisone therapy, septic shock) is listed as “more episodes of super infection”, the “survival in patients with septic shock” value (sepsis; low-dose hydrocortisone therapy) is listed as “did not improve survival” and the survival rate (LPS-induced sepsis; 48 hours, hydrocortisone only, doses at 3 and 24 hours) is listed as 56%.
In the case of CC(C)(C)C(=O)Oc1ccc(S(=O)(=O)Nc2ccccc2C(=O)NCC(=O)O)cc1 [sivelestat], the 180 day mortality (sepsis; [4]) is given as “possibly increased”, the mechanical ventilation days (sepsis; [4]) is given as “no difference” and the “mortality rate within 28-30 days after randomization” value (sepsis; [4]) is given as “no difference”. For the same compound, the survival rate (LPS-induced sepsis; 48 hours after LPS injection, doses at 3, 6, 9, and 12 hours) was 50%, the “pulmonary arteriole endothelium degradation (SEM, lung)” value [3] was “did not prevent degradation of the continuous pulmonary arteriole endothelium” and the “sieve plates (SEM, liver)” value [3] was “not able to prevent defenestration of sieve plates”. The “tissue damage (SEM, kidney)” value [3] was “did not prevent gross tissue damage”.
For CC(=O)O[C@H]1C(=O)[C@@]2(C)[C@H]([C@H](OC(=O)c3ccccc3)[C@]3(O)C[C@H](OC(=O)[C@H](O)[C@@H](NC(=O)c4ccccc4)c4ccccc4)C(C)=C1C3(C)C)[C@]1(OC(C)=O)CO[C@@H]1C[C@@H]2O [paclitaxel], the “bodyweight gain relative to average starting bodyweight” value (MDA-MB-231 cells) was 5%.
